Reference: PubChem BioAssay (NCI)
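Cultured in 96-well plates, cells were exposed to test compound for 48 hours across five concentrations. The concentration for full growth arrest is given as TGI.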

Columns and labels:
Test in all cases: growth of human tumour cells (NCI), 48 h
OVCAR-5 ovarian = tested on: OVCAR-5 ovarian
TK-10 renal = tested on: TK-10 renal
K-562 leukemia = tested on: K-562 leukemia
SF-295 CNS = tested on: SF-295 CNS
EKVX NSCLC = tested on: EKVX NSCLC
786-0 renal = tested on: 786-0 renal
HCC-2998 colon = tested on: HCC-2998 colon
NCI-H226 lung = tested on: NCI-H226 lung
MDA-MB-231 breast = tested on: MDA-MB-231 breast
NCI-H23 lung = tested on: NCI-H23 lung
RPMI-8226 leukemia = tested on: RPMI-8226 leukemia

SMILES	TGI (OVCAR-5 ovarian) [µM]	TGI (TK-10 renal) [µM]	TGI (K-562 leukemia) [µM]	TGI (SF-295 CNS) [µM]	TGI (EKVX NSCLC) [µM]	TGI (786-0 renal) [µM]	TGI (HCC-2998 colon) [µM]	TGI (NCI-H226 lung) [µM]	TGI (MDA-MB-231 breast) [µM]	TGI (NCI-H23 lung) [µM]	TGI (RPMI-8226 leukemia) [µM]
Cc1ccc2nc(Nc3ccccc3C)c(Nc3ccccc3C)nc2c1	47.5	> 92.7	> 57.4	52.3	> 100	> 100	61.3	> 89.7	> 100	45.6	> 100
O=C1c2cccnc2C(=O)c2c1nc1ccccc1c2-c1ccc2c3c(nc4ccccc42)C(=O)c2cccnc2-c13	33.6	19.1	> 35.3	7.68	6.69	1.91	9.28	7.55	9.49	2.67	7.14
CCCCCc1cc(CCCC)sc1-c1ccco1	> 100	> 100	> 100	> 100	> 100	> 100	> 100	> 100	> 100	> 100	> 100
Cn1c2ccccc2c2c3c(=O)[nH][nH]c(=O)c3c3c4ccccc4n(C)c3c21	> 100	> 100	> 100	> 100	> 100	> 100	> 100	> 100	> 100	> 100	> 100
C=CCN(c1cc(OC)c2[nH]c(C(=O)O)c(C)c2c1[N+](=O)[O-])S(C)(=O)=O	> 100	> 100	> 100	> 100	> 100	> 100	> 100	> 100	> 100	> 100	> 100
O=C(O)CCSc1ncnc2nc[nH]c12	> 100	> 100	> 100	> 100	> 100	> 100	> 100	> 100	> 100	> 100	> 100
C[C@@](Br)(C(=O)O)[C@H](Br)C(=O)O	> 100	> 100	> 100	> 100	> 100	> 100	> 100	> 100	> 100	> 100	> 100
COC(=O)[C@@H]1[C@H]2CC[C@]3(C)[C@@H](OC(C)=O)CC[C@H]3[C@@H]2CC[C@H]1C1(C)SCCS1	50.8	> 100	94	73.6	74.4	62.5	86.2	42.3	62.1	86.7	43.4
CC1=[N+]([O-])C2(CCCC2)N(O)C1(C)C	> 100	> 100	> 100	> 100	> 100	> 100	> 100	> 100	> 100	> 100	> 100
COc1ccc2c(c1)CCC(CN1CCN(CCOC(c3ccccc3)c3ccccc3)CC1)C2O (stereo not given)	30.5	28.6	44.1	36	24.4	32.6	16.1	34.1	29.7	28.9	35.3
O=C1CCCC2=C1CC1=C(CCCC1=O)N2c1ccc(-c2ccccc2)cc1	> 100	> 100	> 100	> 100	> 100	> 100	> 100	> 100	> 100	> 100	> 100
O=c1cccc2n1CC1CNCC2C1 (stereo not given)	> 100	> 100	> 100	> 100	> 100	> 100	> 100	> 100	> 100	> 100	> 100
Cc1nc2ccccc2n1Cc1ccc(NC(=S)Nc2ccccc2)cc1	> 100	> 100	> 100	> 100	> 100	> 100	> 100	> 100	> 100	> 100	> 100
CC(C)(C)C#CI1OC(=O)c2ccccc21	21.9	15.8	11.7	28.2	17.5	11.5	23.6	15.2	34	15.3	5.11
CCOC(=O)OC1(c2ccccc2)CCN(C)CC1	> 100	> 100	> 100	> 100	> 100	> 100	> 100	> 100	> 100	> 100	> 100
